Source: ChEMBL document CHEMBL3046223, “Compounds against inflammation and oxidative insult as potential agents for neurodegenerative disorders” (Med Chem Res, 2012)
pIC50: −log10 of the molar value.

Assays:
Rattus norvegicus [1] = test: Anti-inflammatory activity in Rattus norvegicus Fischer-344 (rat) assessed as inhibition of carrageenan-induced paw oedema at 0.30 mmol/kg, ip administered 5 min before […] measured after 3 hr relative to control; assay type: functional; settings: Fischer-344, ip
[2] = target: T1, Prostaglandin G/H synthase 1 (Ovis aries) (UniProt P05979); test: Inhibition of Ovis aries (sheep) COX1 assessed as formation of PGF2a at 200 uM by enzyme immunoassay
T1 sequence (whole entry): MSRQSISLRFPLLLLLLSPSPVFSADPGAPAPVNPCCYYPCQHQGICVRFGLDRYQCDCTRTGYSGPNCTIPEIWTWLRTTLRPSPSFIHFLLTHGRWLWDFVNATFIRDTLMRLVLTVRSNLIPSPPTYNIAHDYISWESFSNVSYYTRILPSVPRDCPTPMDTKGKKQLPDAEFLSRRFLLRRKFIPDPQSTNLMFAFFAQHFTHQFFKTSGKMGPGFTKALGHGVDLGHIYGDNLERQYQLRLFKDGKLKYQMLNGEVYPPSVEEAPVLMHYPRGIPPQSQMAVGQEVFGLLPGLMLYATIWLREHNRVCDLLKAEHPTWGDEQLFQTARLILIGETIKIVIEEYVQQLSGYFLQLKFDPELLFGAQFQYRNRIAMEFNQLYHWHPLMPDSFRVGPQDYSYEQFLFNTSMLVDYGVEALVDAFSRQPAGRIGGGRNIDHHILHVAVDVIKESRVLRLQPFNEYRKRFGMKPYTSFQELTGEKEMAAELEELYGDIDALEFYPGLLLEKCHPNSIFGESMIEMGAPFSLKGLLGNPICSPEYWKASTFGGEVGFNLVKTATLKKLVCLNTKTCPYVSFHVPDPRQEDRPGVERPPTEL

[3] = target: T2, Seed linoleate 13S-lipoxygenase-1 (Glycine max, UniProt P08170); test: Inhibition of Glycine max (soybean) lipoxygenase assessed as formation of 13-hydroperoxylinoleic acid using sodium linoleate as substrate after 7 min
T2 sequence (P08170 whole entry): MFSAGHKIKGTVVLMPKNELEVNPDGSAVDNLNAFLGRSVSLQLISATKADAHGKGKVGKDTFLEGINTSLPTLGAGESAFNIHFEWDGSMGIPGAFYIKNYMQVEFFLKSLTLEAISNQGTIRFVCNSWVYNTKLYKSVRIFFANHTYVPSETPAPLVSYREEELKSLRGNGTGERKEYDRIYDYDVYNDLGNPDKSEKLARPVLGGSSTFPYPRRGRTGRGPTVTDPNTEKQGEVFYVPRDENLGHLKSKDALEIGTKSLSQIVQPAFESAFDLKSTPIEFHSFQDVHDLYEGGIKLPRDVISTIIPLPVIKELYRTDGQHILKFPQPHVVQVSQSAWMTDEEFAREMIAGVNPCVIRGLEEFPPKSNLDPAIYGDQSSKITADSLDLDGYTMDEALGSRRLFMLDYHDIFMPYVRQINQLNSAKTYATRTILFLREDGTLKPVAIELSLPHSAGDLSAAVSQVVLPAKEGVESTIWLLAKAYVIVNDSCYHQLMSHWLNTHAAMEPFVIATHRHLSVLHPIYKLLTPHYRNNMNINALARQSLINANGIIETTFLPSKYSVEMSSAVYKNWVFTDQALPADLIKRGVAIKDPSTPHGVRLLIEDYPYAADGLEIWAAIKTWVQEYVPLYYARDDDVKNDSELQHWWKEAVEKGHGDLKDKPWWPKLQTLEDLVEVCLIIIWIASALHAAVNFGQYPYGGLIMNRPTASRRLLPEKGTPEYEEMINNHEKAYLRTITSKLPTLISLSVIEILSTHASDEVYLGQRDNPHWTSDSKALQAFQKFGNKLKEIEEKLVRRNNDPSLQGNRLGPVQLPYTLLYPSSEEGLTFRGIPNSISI

Mus musculus [4] = test: Anti-inflammatory activity in Balb-C Mus musculus (mouse) assessed as inhibition of FCA-induced paw oedema at 0.30 mmol/kg, ip administered 5 min before FCA challenge measured after 3 hr relative to control; assay type: functional
Rattus norvegicus [5] = test: Toxicity in Rattus norvegicus (rat) assessed as body weight change per 100 gram body weight at 200 umol/kg, sc qd for 4 days; assay type: organism-based; settings: in vivo, 96 h
[6] = Toxicity in Rattus norvegicus (rat) assessed as mortality at 200 umol/kg, sc qd for 4 days; assay type: organism-based; settings: in vivo
Rattus norvegicus [7] = test: Gastrointestinal toxicity in Rattus norvegicus (rat) assessed as perforating ulcers at 200 umol/kg, sc qd for 4 days; assay type: organism-based; settings: in vivo, 96 h
Rattus norvegicus [8] = test: Gastrointestinal toxicity in Rattus norvegicus (rat) assessed as incidence of melena at 200 umol/kg, sc qd for 4 days; assay type: organism-based; settings: in vivo, 96 h
Rattus norvegicus [9] = test: Toxicity in rat assessed as body weight change per 100 gram body weight at 84 umol/kg, sc qd for 4 days; assay type: organism-based; settings: in vivo, 96 h
Rattus norvegicus [10] = test: Gastrointestinal toxicity in Rattus norvegicus (rat) assessed as incidence of melena at 84 umol/kg, sc qd for 4 days; assay type: organism-based; settings: in vivo, 96 h
[11] = Toxicity in Rattus norvegicus (rat) assessed as mortality at 84 umol/kg, sc qd for 4 days; assay type: organism-based; settings: in vivo
Rattus norvegicus [12] = test: Gastrointestinal toxicity in Rattus norvegicus (rat) assessed as perforating ulcers at 84 umol/kg, sc qd for 4 days; assay type: organism-based; settings: in vivo, 96 h
Mus musculus [13] = test: Anti-inflammatory activity in Balb-C Mus musculus (mouse) assessed as inhibition of FCA-induced paw oedema at 0.15 mmol/kg, ip administered 5 min before FCA challenge measured after 3 hr relative to control; assay type: functional
[14] = Drug uptake in Rattus norvegicus (rat) brain at 0.6 mmol/kg, ip after 30 min by RP-HPLC analysis; assay type: ADME, organism-based; settings: read-out: Drug uptake
[15] = Drug uptake in Rattus norvegicus (rat) brain at 0.6 mmol/kg, ip after 120 min by RP-HPLC analysis; assay type: ADME, organism-based; settings: read-out: Drug uptake
[16] = Drug uptake in Rattus norvegicus (rat) brain at 0.6 mmol/kg, ip after 60 min by RP-HPLC analysis; assay type: ADME, organism-based; settings: read-out: Drug uptake
[17] = Ratio of drug level in brain to blood in Rattus norvegicus (rat) at 0.6 mmol/kg, ip after 3 hr by RP-HPLC analysis; assay type: ADME, organism-based
[18] = Ratio of drug level in brain to blood in Rattus norvegicus (rat) at 0.6 mmol/kg, ip after 2 hr by RP-HPLC analysis; assay type: ADME, organism-based
Liver microsome [19] = test: Antioxidant activity in Rattus norvegicus (rat) liver microsomal fraction assessed as inhibition of lipid peroxidation after 45 min by spectrophotometric analysis; assay type: functional, microsomes; settings: 0.75 h
Liver microsome [20] = test: Antioxidant activity in Rattus norvegicus (rat) liver microsomal fraction assessed as inhibition of lipid peroxidation at 1 mM after 45 min by spectrophotometric analysis; assay type: functional, microsomes
Rattus norvegicus [21] = test: Anti-inflammatory activity in Rattus norvegicus (rat) ischemia-reperfusion model assessed as reduction of malondialdehyde formation in brain at 0.4 mmol/kg, ip qd for 4 days and dose repeated 2 hr before initiation of ischemia measured 90 min after reperfusion; assay type: functional

Compound: COc1ccc2cc(C(C)C(=O)N3CCCC3C(=O)Oc3ccc(C)cc3OC)ccc2c1 (stereo unspecified)
- inhibition in vivo at 300 µmol/kg (Rattus norvegicus [1]): 20%
- inhibition [2]: 16%

Compound: COc1cc(C)ccc1OC(=O)C(C)c1ccc(CC(C)C)cc1 (stereo unspecified)
- pIC50 [3]: 4.19
- inhibition in vivo at 300 µmol/kg (Mus musculus [4]): 43%

Compound: CC(C(=O)O)c1cccc(C(=O)c2ccccc2)c1 (stereo unspecified) [KETOPROFEN]
- Activity (Rattus norvegicus [5]): -24 g
- mortality at 96 h [6]: 50%
- Activity (Rattus norvegicus [7]): 85%
- Activity (Rattus norvegicus [8]): 100%
- inhibition [2]: 86%

Compound: COc1ccc2cc(C(C)C(=O)Oc3ccc(C)cc3OC)ccc2c1 (stereo unspecified)
- inhibition in vivo at 300 µmol/kg (Rattus norvegicus [1]): 40%
- pIC50 [3]: 4.05

Compound: COc1ccc2c(c1)c(CC(=O)N1CCCC1C(=O)Oc1ccc(C)cc1OC)c(C)n2C(=O)c1ccc(Cl)cc1 (stereo unspecified)
- Activity (Rattus norvegicus [9]): 11 g
- Activity (Rattus norvegicus [10]): 0%
- mortality at 96 h [11]: 0%
- inhibition [2]: 16%
- Activity (Rattus norvegicus [12]): 0%
- inhibition in vivo at 150 µmol/kg (Mus musculus [13]): 49%
- inhibition in vivo at 300 µmol/kg (Mus musculus [4]): 54%

Compound: C[C@H](C(=O)O)c1cccc(C(=O)c2ccccc2)c1 [DEXKETOPROFEN]
- inhibition in vivo at 300 µmol/kg (Rattus norvegicus [1]): 42%

Compound: COc1ccc2cc([C@H](C)C(=O)O)ccc2c1 [NAPROXEN]
- inhibition in vivo at 300 µmol/kg (Rattus norvegicus [1]): 51%
- inhibition [2]: 52%

Compound: COc1ccc2cc(C(C)C(=O)OCCCc3cccnc3)ccc2c1 (stereo unspecified)
- inhibition in vivo at 300 µmol/kg (Rattus norvegicus [1]): 27%
- inhibition [2]: 71%
- pIC50 [3]: 4.55

Compound: COc1ccc2c(c1)c(CC(=O)O)c(C)n2C(=O)c1ccc(Cl)cc1 [INDOMETHACIN]
- Activity (Rattus norvegicus [9]): -15 g
- Activity (Rattus norvegicus [10]): 100%
- mortality at 96 h [11]: 50%
- Activity (Rattus norvegicus [12]): 80%
- inhibition in vivo at 150 µmol/kg (Mus musculus [13]): 68%

Compound: CC(C)Cc1ccc(C(C)C(=O)N2CCCC2C(=O)OCCCc2ccccc2)cc1 (stereo unspecified)
- pIC50 [3]: 4.22
- inhibition in vivo at 300 µmol/kg (Mus musculus [4]): 31%

Compound: CC(C)Cc1ccc(C(C)C(=O)N2CCCC2C(=O)NCCS)cc1 (stereo unspecified)
- concentration at 0.5 h [14]: 9780 ng/g
- concentration at 2 h [15]: 35200 ng/g
- concentration at 1 h [16]: 10200 ng/g

Compound: COc1ccc2cc([C@H](C)C(=O)N3CC(O)CC3C(=O)NCCS)ccc2c1 (stereo partly specified)
- Kp at 3 h [17]: 0.004
- concentration at 0.5 h [14]: 26600 ng/g
- concentration at 2 h [15]: 710 ng/g
- concentration at 1 h [16]: 5700 ng/g
- Kp at 2 h [18]: 0.04

Compound: CC(C(=O)NCCS)c1cccc(C(=O)c2ccccc2)c1 (stereo unspecified)
- inhibition in vivo at 300 µmol/kg (Rattus norvegicus [1]): 39%
- pIC50 (Liver microsome [19]): 3.19

Compound: CC(C)Cc1ccc([C@H](C)C(=O)O)cc1 [DEXIBUPROFEN]
- inhibition in vivo at 300 µmol/kg (Mus musculus [4]): 53%

Compound: CC(C)Cc1ccc(C(C)C(=O)N2CCCC2C(=O)OCCO)cc1 (stereo unspecified)
- pIC50 [3]: 3.49
- inhibition in vivo at 300 µmol/kg (Mus musculus [4]): 24%

Compound: CC(C)Cc1ccc(C(C)C(=O)N2CCCC2C(=O)OCCO[N+](=O)[O-])cc1 (stereo unspecified)
- pIC50 [3]: 3.62
- inhibition in vivo at 300 µmol/kg (Mus musculus [4]): 62%
- inhibition (Liver microsome [20]): 14%

Compound: CCOC(=O)C(CS)NC(=O)C1CCCCN1C(=O)Cc1c(C)[nH]c2ccc(OC)cc12 (stereo unspecified)
- pIC50 (Liver microsome [19]): 5.10

Compound: CC(C)Cc1ccc(C(C)C(=O)OCCCc2cccnc2)cc1 (stereo unspecified)
- pIC50 [3]: 4.35
- inhibition in vivo at 300 µmol/kg (Mus musculus [4]): 59%

Compound: COc1ccc2cc(C(C)C(=O)N3CCCC3C(=O)OCCCc3cccnc3)ccc2c1 (stereo unspecified)
- inhibition in vivo at 300 µmol/kg (Rattus norvegicus [1]): 24%
- pIC50 [3]: 4.34

Compound: CCOC(=O)C(CS)NC(=O)C1CCCN1C(=O)C(C)c1cccc(C(=O)c2ccccc2)c1 (stereo unspecified)
- inhibition in vivo at 300 µmol/kg (Rattus norvegicus [1]): 52%
- pIC50 [3]: 3.77
- pIC50 (Liver microsome [19]): 3.36

Compound: COc1cc(C)ccc1OC(=O)C1CCCN1C(=O)C(C)c1cccc(C(=O)c2ccccc2)c1 (stereo unspecified)
- inhibition in vivo at 300 µmol/kg (Rattus norvegicus [1]): 13%
- pIC50 [3]: 4.22

Compound: CC(C(=O)OCCCc1cccnc1)c1cccc(C(=O)c2ccccc2)c1 (stereo unspecified)
- Activity (Rattus norvegicus [5]): -13 g
- mortality at 96 h [6]: 33%
- Activity (Rattus norvegicus [7]): 50%
- Activity (Rattus norvegicus [8]): 60%
- inhibition in vivo at 300 µmol/kg (Rattus norvegicus [1]): 61%
- inhibition [2]: 87%
- pIC50 [3]: 3.84

Compound: CCOC(=O)C(CS)NC(=O)C1CCCN1C(=O)Cc1c(C)n(C(=O)c2ccc(Cl)cc2)c2ccc(OC)cc12 (stereo unspecified)
- inhibition in vivo at 150 µmol/kg (Mus musculus [13]): 25%
- inhibition in vivo at 300 µmol/kg (Mus musculus [4]): 44%
- Activity (Rattus norvegicus [21]): 3 nmol/mg
- pIC50 (Liver microsome [19]): 3.41

Compound: CCOC(=O)C(CS)NC(=O)C1CCCN1C(=O)C(C)c1ccc(CC(C)C)cc1 (stereo unspecified)
- concentration at 0.5 h [14]: 1590 ng/g
- concentration at 2 h [15]: 27800 ng/g
- concentration at 1 h [16]: 40800 ng/g
